Data taken from patent publication US11713335B2, “Aminocoumarin compounds and methods of their use” (President and Fellows of Harvard College, priority 2018, dated 2023).
Converted amounts (≈) assume the structure as drawn. Read-outs that look alike come from different tables or passages of the source.

Key:
[1] = system: WT E. coli; test: Minimal inhibitory concentration in wild-type E. coli; format: cell-based, Escherichia coli; conditions: wild-type E. coli, 37° C., 16 hours, read-out: MIC (μM) in WT E. coli
Procedure, shortened: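 Broth microdilution: saturated LB overnight culture diluted 1:100 twice, compound serially two-fold diluted across the plate from DMSO stock. Static incubation 16 hours at 37° C, OD600 read; MIC taken as lowest concentration inhibiting growth.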

[2] = system: E. coli 25922; test: Minimal inhibitory concentration, E. coli 25922; format: cell-based; conditions: 16 hour minimal inhibitory concentration at 37° C., read-out: MIC (μM) E. coli 25922
Procedure, shortened: (§1)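 MIC, in µM, taken as the lowest compound concentration preventing growth by OD600 after 16 h static incubation at 37 °C. Compound was twofold serially diluted in bacteria grown overnight in LB, or TSA for S. aureus, and diluted 1:100 twice.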

[3] = system: S. aureus RN4220; test: Minimal inhibitory concentration, S. aureus RN4220; format: cell-based; conditions: 16 hour minimal inhibitory concentration at 37° C., read-out: MIC (μM) S. aureus RN4220
Procedure, shortened: as §1

[4] = system: S. aureus MW2; test: Minimal inhibitory concentration, S. aureus MW2; format: cell-based; conditions: 16 hour minimal inhibitory concentration at 37° C., read-out: MIC (μM) S. aureus MW2 (MRSA)
Procedure, shortened: as §1

[5] = system: A. baumannii 19606; test: Minimal inhibitory concentration, A. baumannii 19606; format: cell-based; conditions: 16 hour minimal inhibitory concentration at 37° C., read-out: MIC (μM) A. baumannii 19606
Procedure, shortened: as §1

[6] = system: E. cloacae 13047; test: Minimal inhibitory concentration, E. cloacae 13047; format: cell-based; conditions: 16 hour minimal inhibitory concentration at 37° C., read-out: MIC (μM) E. cloacae 13047
Procedure, shortened: as §1

[7] = system: E. coli MC4100; test: Minimal inhibitory concentration, E. coli MC4100; format: cell-based; conditions: 16 hour minimal inhibitory concentration at 37° C., read-out: MIC (μM) E. coli MC4100 ara+
Procedure, shortened: as §1

[8] = system: K. pneumoniae 700721; test: Minimal inhibitory concentration, K. pneumoniae 700721; format: cell-based; conditions: 16 hour minimal inhibitory concentration at 37° C., read-out: MIC (μM) K. pneumoniae 700721
Procedure, shortened: as §1

[9] = Staphylococcus aureus, RN4220, 16 h
[10] = Staphylococcus aureus, MRSA, 16 h
[11] = Acinetobacter baumannii, 19606, 16 h

| SMILES | MIC [1] [µM] | MIC [2] [µM] | MIC [3] [µM] | MIC [4] [µM] | MIC [5] [µM] | MIC [6] [µM] | MIC [7] [µM] | MIC [8] [µM] | MIC ([1]; Escherichia coli) [µM] | MIC ([2]; Escherichia coli, 25922, 16 h) [µM] | MIC [3, 9] [µM] | MIC [4, 10] [µM] | MIC [5, 11] [µM] | MIC ([6]; Enterobacter cloacae, 13047) [µM] | MIC ([7]; Escherichia coli, MC4100, 16 h) [µM] | MIC ([8]; Klebsiella pneumoniae, 700721) [µM] |
| --- | --- | --- | --- | --- | --- | --- | --- | --- | --- | --- | --- | --- | --- | --- | --- | --- |
| CO[C@@H]1[C@@H](OC(N)=O)[C@@H](O)[C@H](Oc2ccc3c(O)c(NC(=O)c4cc(-c5ccccc5)ccc4N)c(=O)oc3c2C)OC1(C)C [Compound 85] | 59 (≈ 36.6 µg/mL) | 40 (≈ 24.8 µg/mL) | 5 (≈ 3.1 µg/mL) | 2.5 (≈ 1.55 µg/mL) | >50 | >100 | 59 (≈ 36.6 µg/mL) | >100 | – | – | – | – | – | – | – | – |
| CO[C@@H]1[C@@H](OC(N)=O)[C@@H](O)[C@H](Oc2ccc3c(O)c(NC(=O)c4cccc(-c5ccccc5[N+](=O)[O-])c4)c(=O)oc3c2C)OC1(C)C [Compound 64] | >300 | >200 | 77 (≈ 50 µg/mL) | 39 (≈ 25.3 µg/mL) | >50 | >100 | >200 | >100 | – | – | – | – | – | – | – | – |
| CO[C@@H]1[C@@H](OC(N)=O)[C@@H](O)[C@H](Oc2ccc3c(O)c(NC(=O)c4cccc(-c5ccccc5N)c4)c(=O)oc3c2C)OC1(C)C [Compound 65] | 59 (≈ 36.6 µg/mL) | >200 | 81 (≈ 50.2 µg/mL) | 40 (≈ 24.8 µg/mL) | >50 | >100 | 59 (≈ 36.6 µg/mL) | >100 | – | – | – | – | – | – | – | – |
| CO[C@@H]1[C@@H](OC(N)=O)[C@@H](O)[C@H](Oc2ccc3c(O)c(NC(=O)c4cccc(-c5ccccn5)c4)c(=O)oc3c2C)OC1(C)C [Compound 31] | – | – | – | – | – | – | – | – | > 300 | > 200 | 41 (≈ 24.8 µg/mL) | 41 (≈ 24.8 µg/mL) | > 50 | > 100 | > 200 | > 100 |
| CO[C@@H]1[C@@H](OC(N)=O)[C@@H](O)[C@H](Oc2ccc3c(O)c(NC(=O)c4cccc(-c5cccc(O)c5O)c4)c(=O)oc3c2C)OC1(C)C [Compound 99] | >300 | >200 | 79 (≈ 50.3 µg/mL) | 79 (≈ 50.3 µg/mL) | >50 | >100 | >200 | >100 | – | – | – | – | – | – | – | – |
| CO[C@@H]1[C@@H](OC(N)=O)[C@@H](O)[C@H](Oc2ccc3c(O)c(NC(=O)c4ccc(-c5ccccc5)cc4)c(=O)oc3c2C)OC1(C)C [Compound 2] | – | – | – | – | – | – | – | – | > 300 | > 200 | 21 (≈ 12.7 µg/mL) | 21 (≈ 12.7 µg/mL) | > 50 | > 100 | > 200 | > 100 |
| CO[C@@H]1[C@@H](OC(N)=O)[C@@H](O)[C@H](Oc2ccc3c(O)c(NC(=O)c4cc5ccccc5o4)c(=O)oc3c2C)OC1(C)C [Compound 6] | – | – | – | – | – | – | – | – | > 300 | > 200 | 88 (≈ 50 µg/mL) | 88 (≈ 50 µg/mL) | > 50 | > 100 | > 200 | > 100 |
| CO[C@@H]1[C@@H](OC(N)=O)[C@@H](O)[C@H](Oc2ccc3c(O)c(NC(=O)c4cccc(-c5ccccc5C(C)C)c4)c(=O)oc3c2C)OC1(C)C [Compound 49] | >300 | >200 | 10 (≈ 6.47 µg/mL) | 5 (≈ 3.23 µg/mL) | >50 | >100 | >200 | >100 | – | – | – | – | – | – | – | – |
| CO[C@@H]1[C@@H](OC(N)=O)[C@@H](O)[C@H](Oc2ccc3c(O)c(NC(=O)c4cc(-c5ccccc5)c(O)cc4O)c(=O)oc3c2C)OC1(C)C [Compound 67] | 18 (≈ 11.5 µg/mL) | 5 (≈ 3.18 µg/mL) | 10 (≈ 6.37 µg/mL) | 5 (≈ 3.18 µg/mL) | >50 | >100 | 18 (≈ 11.5 µg/mL) | 79 (≈ 50.3 µg/mL) | – | – | – | – | – | – | – | – |
| CO[C@@H]1[C@@H](OC(N)=O)[C@@H](O)[C@H](Oc2ccc3c(O)c(NC(=O)c4ccc(C#Cc5ccccc5)cc4)c(=O)oc3c2C)OC1(C)C [Compound 76] | 40 (≈ 25.1 µg/mL) | 80 (≈ 50.3 µg/mL) | 5 (≈ 3.14 µg/mL) | 3 (≈ 1.89 µg/mL) | 40 (≈ 25.1 µg/mL) | >100 | 40 (≈ 25.1 µg/mL) | >100 | – | – | – | – | – | – | – | – |
| CO[C@@H]1[C@@H](OC(N)=O)[C@@H](O)[C@H](Oc2ccc3c(O)c(NC(=O)c4ccc(O)c(CC(N)=O)c4)c(=O)oc3c2C)OC1(C)C [Compound 90] | >300 | >200 | >100 | >100 | >50 | >100 | >200 | >100 | – | – | – | – | – | – | – | – |
| CO[C@@H]1[C@@H](OC(N)=O)[C@@H](O)[C@H](Oc2ccc3c(O)c(NC(=O)c4cccc(-c5ccc(I)cc5)c4)c(=O)oc3c2C)OC1(C)C [Compound 34] | – | – | – | – | – | – | – | – | 59 (≈ 43.1 µg/mL) | 68 (≈ 49.7 µg/mL) | 0.43 (≈ 0.314 µg/mL) | 0.43 (≈ 0.314 µg/mL) | 9 (≈ 6.57 µg/mL) | > 100 | 59 (≈ 43.1 µg/mL) | > 100 |
| CO[C@@H]1[C@@H](OC(N)=O)[C@@H](O)[C@H](Oc2ccc3c(O)c(NC(=O)c4ccc[nH]4)c(=O)oc3c2C)OC1(C)C [Compound 15] | – | – | – | – | – | – | – | – | > 300 | > 200 | > 100 | > 100 | > 50 | > 100 | > 200 | > 100 |
| CO[C@@H]1[C@@H](OC(N)=O)[C@@H](O)[C@H](Oc2ccc3c(O)c(NC(=O)c4ccc(CCc5ccccc5)cc4)c(=O)oc3c2C)OC1(C)C [Compound 77] | 40 (≈ 25.3 µg/mL) | 40 (≈ 25.3 µg/mL) | 10 (≈ 6.33 µg/mL) | 5 (≈ 3.16 µg/mL) | >50 | >100 | 40 (≈ 25.3 µg/mL) | >100 | – | – | – | – | – | – | – | – |
| CO[C@@H]1[C@@H](OC(N)=O)[C@@H](O)[C@H](Oc2ccc3c(O)c(NC(=O)c4ccc(O)c(-c5ccccc5)c4)c(=O)oc3c2C)OC1(C)C [Compound 83] | 26 (≈ 16.1 µg/mL) | 40 (≈ 24.8 µg/mL) | 3 (≈ 1.86 µg/mL) | 2.5 (≈ 1.55 µg/mL) | 20 (≈ 12.4 µg/mL) | >100 | 26 (≈ 16.1 µg/mL) | >100 | – | – | – | – | – | – | – | – |
| CO[C@@H]1[C@@H](OC(N)=O)[C@@H](O)[C@H](Oc2ccc3c(O)c(NC(=O)c4cccc(-c5ccc(C)cc5)c4)c(=O)oc3c2C)OC1(C)C [Compound 20] | 26 (≈ 16.1 µg/mL) | 40 (≈ 24.7 µg/mL) | 2.5 (≈ 1.55 µg/mL) | 3 (≈ 1.86 µg/mL) | 40 (≈ 24.7 µg/mL) | >100 | 26 (≈ 16.1 µg/mL) | >100 | – | – | – | – | – | – | – | – |
